# Format: physicochemical
# Method: The L. plantarum B21 bacteriocin was purified from the CFS by a three-step protocol process consisting of concentration, n-butanol extraction and cation exchange chromatography by Fast Protein Liquid Chromatography (FPLC). All purification steps were carried out at room temperature. L. plantarum B21 was used as an inoculum 2% (v/v) into 165 mL of MRS broth and incubated at 30 °C for 24 h without shaking. The CFS was prepared as previously described. The CFS was concentrated to 70 mL through a 10 kDa polyethersulfone membrane discs (Generon, UK) using an Amicon UF cell (Model 8200, Millipore, USA). The concentrated CFS was subjected to n-butanol extraction according to Abo-Amer with a few modifications. The concentrated L. plantarum B21 CFS was extracted twice in 1:1 volume of water saturated n-butanol and centrifuged at 10,000 × g for 10 min. The n-butanol fraction containing the bacteriocin was freeze dried (FDU-8612, Operon Co. Ltd, Korea) to remove the solvent. The dried n-butanol fraction was redissolved in 20 mM sodium phosphate buffer, pH 6.0. Both the n-butanol and aqueous fractions were examined for antimicrobial activity. […] The concentration of the bacteriocin was measured after each step of protein purification using Pierce™ BCA Protein Assay Kit (Thermo Fisher Scientific, USA) according to manufacturer's instruction.
substance,measurement,value
cyclo(AAAGALGGTAAIVWIARQFGVHLTTKLTQKALDLLSSGASLGTVAAVILGVTLPGWAV) [plantacyclin B21AG],Solubility in butanol,remarkable solubility

# From PMC7452424, “Discovery and characterisation of circular bacteriocin plantacyclin B21AG from Lactiplantibacillus plantarum B21” (Heliyon, 2020)
